Data reported in patent US20230142705A1, “USE OF ANTI-AGING GLYCOPEPTIDES FOR INHIBITION OF IMMUNE REJECTION OF A GRAFT” (PROTOKINETIX INC., priority 2020, published 2023).

What was measured:
[1] = tested on: CD4+ T cells; test: Immunohistochemistry to detect CD4+ T cells in conjunctival epithelium of dry eye disease-induced mice; assay type: in vivo, mouse; settings: bilateral topical administration of 5%; for CD4+ T cells infiltration into the conjunctival epithelium: DS-induced mice, result in words
Method: Enucleated mouse eyes with intact conjunctiva were suspended in optimal cutting temperature (OCT) compound and flash frozen in liquid nitrogen. Immunohistochemistry was performed on six-micrometer frozen sections to detect and count the number of cells in conjunctival epithelium that stained positively for CD4 (clone H129.9, 10 μg/mL; BD Biosciences® cat #553647), a biotinylated secondary antibody (BD Pharmingen® cat #559286), and NovaRED® peroxidase (Vector Laboratories® cat #SK-4800). Secondary antibody alone and anti-rat isotype (clone A110-2; BD Biosciences® cat #553992) controls were also examined. Positively stained cells were counted in the GC-rich area of the conjunctiva using image analysis software (Nikon NIS Elements® software) using a 10×objective. T-cell detection and quantification was performed on Arms 1, 2, 4, and 5 only. CD4+ T cells infiltration into the conjunctival epithelium is a primary clinical indicator of dry eye disease (DED), which is used here as a proxy to study immune cell infiltration into diseased tissue suffering from […].

[2] = tested on: photoreceptor precursor cells (PPCs); test: Survival of AAGP-pretreated photoreceptor precursor cells after subretinal transplantation into rabbits with retinal degeneration; assay type: in vivo, Rabbit (Oryctolagus cuniculus); settings: PPCs pre-treated in vitro 24 hours with 4 mg/mL; 6 months post subretinal transplantation; cyclosporine-A discontinued two weeks post transplantation; qualitative visual examination of flatmounts
Method: The objective of this study was to determine the effect of 24-hour pretreatment with anti-aging glycoprotein (AAGP™) at 4 mg/mL on the long-term (6 months) survival and functional activity of photoreceptor precursor cells (PPCs) following their subretinal transplantation into the eye of rabbits with retinal degeneration.
PPCs were generated in vitro from pluripotent human embryonic stem cells (hESCs) and incubated for 24 hours in media alone (control group) or media containing 4 mg/mL AAGP™ Following incubation, treated and untreated PPCs were labeled and injected into the subretinal space of the eye of immunosuppressed rabbits with induced retinal degeneration (4-5 rabbits/group). Animals were euthanized 6 month later, retinas were collected, and cell survival was determined in excised retinal flatmounts by imaging with confocal laser scanning system. The functional activity of transplanted cells was assessed by immunostaining for synaptic (Ribeye and Bassoon) and photoreceptor markers (Arrestin and Blue Opsin).
Retinal degeneration was induced on Day 1 of the study. […]

[3] = DS5 mice, conjunctival epithelium

`C[C@H](NC(=O)[C@H](C)NC(=O)[C@@H](N)CCCCNC(=O)C(F)(F)C1(O)O[C@H](CO)[C@H](O)[C@H](O)[C@H]1O)C(=O)O.Cl` (stereo partly drawn) [AAGP™] was tested. Which “T-Cell Density, 25% Percentile” value [1, 3] did it give?
The value was 0.3767.

What about the “T-Cell Density, 75% Percentile” value [1, 3] of the same molecule?
The value was 0.7663.

And the “T-Cell Density, Maximum” value [1, 3]?
The value was 1.152.

And the “T-Cell Density, Mean” value [1, 3]?
Its value is 0.5644.

And the “T-Cell Density, Median” value [1, 3]?
The value was 0.4907.

What about the “T-Cell Density, Minimum” value [1, 3] of the same molecule?
Its value is 0.2307.

What about the “CD4+ T cells infiltration into the conjunctival epithelium” value [1] of the same molecule?
The value was “suppresses T-cell response”.

What about the “CD4+ T cells infiltration into the conjunctival epithelium” value ([1]; listed as PKX-001) of the same molecule?
The value was “significantly reduced”.

And the “cell survival of transplanted PPCs” value [2]?
Its value is “substantial increase”.
